The values that follow come from US8372950B2, “IgG binding peptide” (Kagoshima University, priority 2006, dated 2013).

One assay concerns the target IgG antibody. As to conditions: literature (DeLano et al.; Dias et al.); cited from earlier work.
Assay [1] relates to human IgG. Description: immunoprecipitation of human IgG with peptide- or phage-immobilized magnetic beads. The assay is classed as binding. Particulars: immobilized on magnetic beads, FIG. 9; for immunoprecipitated human IgG: western blotting. The procedure: The above cloned T7 phage G-1 (1.0×10^12 pfu) subjected to ultracentrifuge purification or a synthetic peptide IMGpep-1 (150 nmol) was immobilized on 3 mg of tosyl-activated M450 Dynabeads magnetic beads (Dynal) via covalent binding to the terminal amino group according to the protocols recommended by the manufacturer. The beads were blocked with a PBS solution containing 0.5% BSA and then added to 1 ml of hIgG/BSA/PBS (10 μg/ml hIgG and 1 mg/ml BSA), followed by 1 hour of reaction at room temperature while mixing the solution via stirring. Beads were washed 3 times with PBST, SDS-sample buffer was added thereto, and then SDS-PAGE fractionation was carried out. Subsequently, they were subjected to western blotting analysis using a biotinylated anti-hIgG goat polyclonal antibody (Goat Anti-hIgG-pAb-biotin; Pharmingen) and SA-HRP, and then human IgG immunoprecipitated by binding to beads was detected.
Furthermore, immunoprecipitation reaction was similarly carried out using phage clones G-1 415 or IMGpep-2 instead of phage G-1 or IMGpep-1 to detect human IgG. Here, the phage clone G-1 415 (Novagen) is a phage displaying G-1 peptide at all the 415 G10 proteins composing the capsid of T7 phage. Moreover, immunoprecipitation reaction and detection were similarly carried out using an anti-hIgG goat (Fab′)2 fragment, wild-type T7 phage, and BSA, as a control of phage G-1 or IMGpep-1.
(In general: Immunoblotting shows a protein as a band on a membrane.)

Assay [2] relates to human IgG. Kind of assay: ELISA assay of biotinylated synthetic peptides on human IgG. The assay is classed as binding. Particulars: FIG. 6; for binding to human IgG: biotinylated peptide. On the procedure: (§1) The binding activity of the thus obtained biotinylated synthetic peptides to human IgG was assayed by an ELISA assay. The ELISA assay was conducted basically in a manner similar to that in Example 1. Specifically, wells coated with human IgG (100 ng/50 μl/well) were blocked by the addition of 0.5% BSA. A biotinylated synthetic peptide and alkaline phosphatase-labeled streptavidin (SA-AP) were mixed in advance at a molar ratio of 4:1 and then the mixture was added to the well, followed by 1 hour of reaction. Para-nitrophenyl phosphate (Wako) was used for color development. Detection was carried out by measuring absorbance at 405 nm. As a positive control of human IgG, the Fc fragment of hIgG was used. As other control proteins, human IgA and IgE, mouse IgG, IgA, and IgE, hTF, fetal bovine serum (FBS), HSA, BSA, and gelatin were used.

Assay [3] concerns human IgG isotypes (hIgG1 to hIgG4). Kind of assay: ELISA assay of biotinylated synthetic peptides on human IgG isotypes. The assay is classed as binding. As to conditions: FIG. 7. The procedure: as §1
Furthermore, the binding activity of the biotinylated synthetic peptides to human IgG isotypes (hIgG1 to hIgG4), was assayed similarly by an ELISA assay. As a control protein of human IgG, BSA was used.

Assay [4] relates to human IgG. Kind of assay: SPR kinetic analysis of binding between synthetic peptides and human IgG. Particulars: for association rate constants (ka) / dissociation rate constants (kd) / Kd: biotinylated peptide immobilized on sensor chip SA, human IgG as analyte, 25° C.; for Kd: read-out: Dissociation constants (Kd). The procedure: Binding between the synthetic peptide IMGpep-1, IMGpep-1E6Q, IMGpep-4, or IMGpep-4K6R and human IgG was subjected to kinetic analysis of binding using surface plasmon resonance (SPR). SPR analysis was carried out using BIAcore2000 (BIAcore) at 25° C. Necessary reagents and sensor chips were purchased from BIAcore and then used. A 50 μM solution (pH 5) of each of four biotinylated synthetic peptides (IMGpep-1, IMGpep1E6Q, IMGpep4, and IMGpep-4K6R) was injected over a sensor chip SA, so as to immobilize the peptide on the chip. The amount of each peptide to be immobilized was adjusted so that the RU (response unit) ranged from 1500 to 2000. Subsequently, human IgG (analyte) was injected at a flow rate of 10 μl/min and at various concentrations (660 nM, 330 nM, 165 nM, 82 nM, and 41 nM) through flow cells with the aforementioned sensor chips SA on which the biotinylated-peptides had been immobilized. Binding reaction between human IgG and the peptides was measured. Thereafter, washing with running buffer (HBS-T) was conducted and then dissociation reaction was measured. For washing/elution of bound analytes from the sensor chips, 0.2 M glycine-HCl buffer (pH 2.7) was used. Binding parameters were analyzed using BIA evaluation Version 3.2 software.

A further assay deals with Fc fragment of hIgG. Kind of assay: ELISA assay of biotinylated synthetic peptides on Fc fragment. Format: binding, human. Particulars: biotinylated peptide, FIG. 6. The procedure: as §1
(An ELISA detects its analyte on a solid surface through an enzyme-linked reagent.)

The next assay has as its target T1, human MRA (IgG) (Homo sapiens, UniProt P01857).
T1 construct: purchased Chugai Pharmaceutical
Description: dot blotting detection of human MRA (IgG) on nitrocellulose membranes. Format: binding. On the procedure:
Specifically, acid-treated human MRA (IgG) and untreated human MRA (IgG) were spotted on nitrocellulose membranes in an amount of 1.5 ng, 3 ng, 6 ng, 12.5 ng, 25 ng, 50 ng, and 100 ng per spot. The membranes were dried for 5 minutes and then 0.5% BSA was added for blocking for 2 hours at room temperature. Here, acid-treated human MRA was prepared by adding 10 μl of 1 M glycine-HCl (pH 2.8) to 100 μl of humanized anti-human IL-6 receptor IgG antibody (MRA) (2000 μg/ml, PBS solution), carrying out incubation at 40° C. for 10 minutes, and then neutralizing it by the addition of 30 μl of 1 M Tris-HCl (pH 8.7).
The mixture was added to the membranes blocked as described above, followed by 1 hour of reaction. After 3 times of washing with PBS containing 0.1% Tween20, a chemiluminescence reagent (Chemi-Lumi One, Nakalai Tesque) was added. Images were analyzed for detection using a LAS-1000 Image Analyzer (Fuji Film).

The target of another assay is T2, anti-HER2 human IgG (Homo sapiens, UniProt P01857).
T2 construct: purchased Herceptin
T2 sequence (P01857 1-330 isoform P01857-1, other chains not shown): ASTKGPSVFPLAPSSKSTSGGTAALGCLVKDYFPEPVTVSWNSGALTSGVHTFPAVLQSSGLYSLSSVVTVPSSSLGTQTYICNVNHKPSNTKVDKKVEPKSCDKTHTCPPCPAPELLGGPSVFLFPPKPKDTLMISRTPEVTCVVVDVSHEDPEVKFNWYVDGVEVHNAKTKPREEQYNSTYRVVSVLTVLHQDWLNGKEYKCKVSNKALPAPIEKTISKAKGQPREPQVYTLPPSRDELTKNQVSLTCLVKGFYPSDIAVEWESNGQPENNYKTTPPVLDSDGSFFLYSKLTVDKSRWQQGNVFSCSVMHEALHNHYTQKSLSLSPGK
Description: separation on IMGpep-4K6R-immobilized column. As to conditions: untreated anti-HER2 human IgG sample. Format: binding. On the procedure: Moreover, a biotinylated IMGPep-4K6R peptide (biotin-spacer-[…] (SEQ ID NO: 11)) solution (500 μM, 1 ml) was injected to a HiTrap Streptavidin HP column (GE Healthcare) to prepare the column in which IMGPep-4K6R was immobilized. The antibody sample was injected at a flow rate of 0.4 ml/min to the IMGPep-4K6R-immobilized column. Gradient elution was carried out using from 20 mM phosphate buffered saline (PBS, pH 7.0) containing 0.1 M NaCl to 0.1M glycine-HCl (pH 2.5) containing 0.1 M NaCl.

The target of the next assay is T3, human IgG MRA (Homo sapiens, UniProt P01857).
T3 construct: purchased Chugai Pharmaceutical
T3 sequence (P01857 1-330 isoform P01857-1, other chains not shown): as above
Kind of assay: immunoprecipitation of MRA fractions with IMGpep-4K6R peptide. Format: binding. The procedure: An immunoprecipitation experiment using an IMGpep-4K6R peptide was conducted by a method similar to that employed in Example 8 for each of an untreated MRA sample, an acid-treated MRA sample (acid treated for 10 minutes at pH 2.2 and 4° C.), a flow-through fraction obtained by passing an acid-treated MRA sample through a biotinylated IMGPep-4K6R peptide-immobilized column, and a purified acid-denatured MRA sample (an adsorbed fraction obtained by passing a human IgG sample subjected to 10 minutes of acid treatment at pH 2.2 and 4° C. through an IMGpep-4K6R peptide-immobilized column). IgG precipitated with the peptide immobilized on magnetic beads was subjected to 12.5% SDS-PAGE and then to CBB staining, and then observed.

Positions of bridges follow the written chain, without caps; N, C: chain ends. Residues, ends and D or L forms follow the SMILES beside them. No end group written: not given here. *: point of attachment. Biotin = O=C1N[C@H]2[C@H](CS[C@H]2CCCCC(=O)*)N1; Ahx = NCCCCCC(=O)O

T1 sequence (P01857 1-330 isoform P01857-1, other chains not shown): as above

Usually Kd stands for the constant that tells how readily two partners part at equilibrium. Consider DCAWHLGELVWCT [Fc-III], for which the Kd at IgG antibody is 185 nM.
With GCTGFWEREWGLCG [IMGpep-2], the “immunoprecipitated human IgG” value with human IgG [1] was “clearly observed”.
As to `CC(C)C[C@@H]1NC(=O)CNC(=O)[C@H](Cc2c[nH]c3ccccc23)NC(=O)[C@H](CCC(N)=O)NC(=O)[C@H](CO)NC(=O)[C@H](CCCNC(=N)N)NC(=O)[C@H](Cc2c[nH]c3ccccc23)NC(=O)[C@H](Cc2ccc(O)cc2)NC(=O)CNC(=O)[C@@H](NC(=O)CNC(=O)CCCCCNC(=O)CCCC[C@@H]2SC[C@@H]3NC(=O)N[C@@H]32)CSSC[C@@H](C(=O)NCC(=O)O)NC1=O` [IMGpep-1E6Q] ({Biotin-Ahx}-GCGYWRSQWGLCG-OH; disulfide 2-12), the “binding activity compared with the original peptides IMGpep-1 and IMGpep-4” value in the assay on human IgG [2] was “significantly and drastically increased”. For the same compound, in [3], the “binding activity to human IgG1, IgG2, IgG3, and IgG4” value (“binding activity to human IgG1, IgG2” for short) is “strong binding activity”; the “binding activity to human IgG1 to IgG4 relative to IMGpep-1 and IMGpep-4” value is “increase to a greater extent”. In the assay with human IgG [4], the “association rate constants (ka)” value is 15000 M⁻¹ s⁻¹, the “dissociation rate constants (kd)” value amounted to 0.00031 s⁻¹ and the Kd is 21 nM.
For the compound `CC(C)C[C@@H]1NC(=O)CNC(=O)[C@H](Cc2c[nH]c3ccccc23)NC(=O)[C@H](C)NC(=O)[C@H](CCCCN)NC(=O)[C@@H]2CCCN2C(=O)[C@H](Cc2c[nH]c3ccccc23)NC(=O)[C@H](Cc2ccc(O)cc2)NC(=O)CNC(=O)[C@H]([C@@H](C)O)NC(=O)[C@@H](NC(=O)CNC(=O)CCCCCNC(=O)CCCC[C@@H]2SC[C@@H]3NC(=O)N[C@@H]32)CSSC[C@@H](C(=O)NCC(=O)O)NC1=O` [IMGpep-4] ({Biotin-Ahx}-GCTGYWPKAWGLCG-OH; disulfide 2-13), the “binding to human IgG” value with human IgG [2] is listed as “specifically bound to human IgG”. For the same compound, the “binding to the Fc fragment of human IgG” value with Fc fragment of hIgG is reported as “bound to the Fc fragment of human IgG”. Moreover, in [3], the “binding activity to human IgG1, IgG2” value is on record as “strong binding activity”. In the assay on human IgG [4], the “association rate constants (ka)” value worked out at 14000 M⁻¹ s⁻¹, the “dissociation rate constants (kd)” value was 0.00041 s⁻¹ and the Kd was determined as 28 nM.
On to “GSGYWRSEWGLSG ({Biotin-Ahx}-GSGYWRSEWGLSG) [IMGpep-1CS]”, for which the “binding to human IgG” value with human IgG [2] is given as “almost lose the binding activity”. The “binding activity to human IgG1, IgG2” value in assay [3] is reported as “almost completely lose its binding activity”. Moreover, the “increased response signal due to the binding” value in the assay with human IgG [4] (control ligand immobilized, human IgG injected) is recorded as “never observed”. Further, in the assay with human MRA (IgG) (untreated MRA, CS(N)), the “detection of spots of untreated human MRA (IgG)” value is “could not detect any spots”.
As to `CC(C)C[C@@H]1NC(=O)CNC(=O)[C@H](Cc2c[nH]c3ccccc23)NC(=O)[C@H](C)NC(=O)[C@H](CCCNC(=N)N)NC(=O)[C@@H]2CCCN2C(=O)[C@H](Cc2c[nH]c3ccccc23)NC(=O)[C@H](Cc2ccc(O)cc2)NC(=O)CNC(=O)[C@H]([C@@H](C)O)NC(=O)[C@@H](NC(=O)CNC(=O)CCCCCNC(=O)CCCC[C@@H]2SC[C@@H]3NC(=O)N[C@@H]32)CSSC[C@@H](C(=O)NCC(=O)O)NC1=O` [IMGpep-4K6R], the “binding activity compared with the original peptides IMGpep-1 and IMGpep-4” value in the assay with human IgG [2] is “significantly and drastically increased”. For the same compound, in [3], the “binding activity to human IgG1, IgG2” value is recorded as “strong binding activity”; the “binding activity to human IgG1 to IgG4 relative to IMGpep-1 and IMGpep-4” value was “increase to a greater extent”. Moreover, in the assay on human IgG [4], the “association rate constants (ka)” value is 16000 M⁻¹ s⁻¹, the “dissociation rate constants (kd)” value came to 0.00038 s⁻¹ and the Kd stood at 24 nM. Besides, the “behaviour of IgG on the column” value at anti-HER2 human IgG is reported as “passed through”. Also, on human IgG MRA (flow-through fraction of acid-treated MRA, lane 4), the “immunoprecipitation of MRA antibody” value is given as “never observed”. At human IgG MRA (untreated MRA, lane 1), the “immunoprecipitation of MRA antibody” value is given as “not immunoprecipitated”. The “antibody sample sufficiently detected” value at human MRA (IgG) (acid-treated MRA (pH 2.8, 40° C., 10 minutes), K6R(A)) is not above 1.5 ng/mL. The “IgG-detection sensitivity and intensity after acid treatment” value at human MRA (IgG) (acid-treated MRA, K6R(A)) is on record as “greatly enhanced”. Moreover, on human MRA (IgG) (untreated MRA, K6R(N)), the “lowest spot of untreated human MRA (IgG) detected” value was not above 1.5 ng/mL and the “overall signal intensity of the detected spots” value was “significantly weak”.
For the compound `CC(C)C[C@@H]1NC(=O)CNC(=O)[C@H](Cc2c[nH]c3ccccc23)NC(=O)[C@H](CCC(=O)O)NC(=O)[C@H](CO)NC(=O)[C@H](CCCNC(=N)N)NC(=O)[C@H](Cc2c[nH]c3ccccc23)NC(=O)[C@H](Cc2ccc(O)cc2)NC(=O)CNC(=O)[C@@H](NC(=O)CNC(=O)CCCCCNC(=O)CCCC[C@@H]2SC[C@@H]3NC(=O)N[C@@H]32)CSSC[C@@H](C(=O)NCC(=O)O)NC1=O` [IMGpep-1] ({Biotin-Ahx}-GCGYWRSEWGLCG-OH; disulfide 2-12), the “binding to human IgG” value in the assay on human IgG [2] was “specifically bound to human IgG”. Moreover, in the assay on Fc fragment of hIgG, the “binding to the Fc fragment of human IgG” value is “bound to the Fc fragment of human IgG”. In assay [3], the “binding activity to human IgG1, IgG2” value is “strong binding activity”. Besides, in the assay on human IgG [4], the “association rate constants (ka)” value stood at 20000 M⁻¹ s⁻¹, the “dissociation rate constants (kd)” value amounted to 0.00034 s⁻¹ and the Kd was 17 nM. For the same compound, in the assay with human IgG [1], the “human IgG trapping efficiency compared with IMGpep-2” value is given as “clearly higher” and the “immunoprecipitated human IgG” value is “clearly observed”.
